Like-named read-outs stand apart in the source and are kept apart here.

The subject of this assay is UWB1 cells. The assay can be described thus: cells.
Where [1] appears, read: read-out: IC50 (μM) UWB1 cells, UWB1 cell viability.

In the case of `COC(=O)C[C@H]1[C@]2(C)C3=C(C)[C@H](c4ccoc4)C[C@H]3O[C@@H]2[C@@H]2OC(=O)[C@]3(C)C=C[C@@H](O)[C@@]1(C)[C@@H]23` [S-55], the IC50 under setting [1] was greater than 10 µM.
For the compound `COC(=O)C[C@H]1[C@@H]2CC3=C(C)[C@H](c4ccoc4)C[C@@H]3O[C@@H]2[C@@H]2OC(=O)[C@]3(C)C=CC(=O)[C@@]1(C)[C@@H]23` [S-57], under setting [1], the IC50 is 0.591 µM.
On the same count and under the same terms, the figure for `COC(=O)C[C@H]1[C@@H]2CC3=C(C)[C@H](c4ccc(C(C)(C)C)cc4)C[C@H]3O[C@@H]2[C@@H]2OC(=O)[C@]3(C)C=CC(=O)[C@@]1(C)[C@@H]23` [S-143] is 0.238 µM.
The same measure, in the same setting: the figure for `COC(=O)C[C@H]1[C@]2(C)C3=C(C)[C@H](c4ccoc4-c4ccc(C(=O)NC(C)(C)C)cc4)C[C@H]3O[C@@H]2[C@@H]2OC(=O)[C@]3(C)C=CC(=O)[C@@]1(C)[C@@H]23` [S-52] is 0.199 µM; for `COC(=O)C[C@H]1[C@@H]2CC3=C(C)[C@@H](c4ccc(CO)cc4)C[C@@H]3O[C@@H]2[C@@H]2OC(=O)[C@]3(C)C=CC(=O)[C@@]1(C)[C@@H]23` [S-150] it is 0.351 µM; for `COC(=O)C[C@H]1[C@]2(C)C3=C(C)[C@H](c4ccoc4-c4ccoc4)C[C@H]3O[C@@H]2[C@@H]2OC(=O)[C@]3(C)C=CC(=O)[C@@]1(C)[C@@H]23` [S-47] it is 0.296 µM.
Take `COC(=O)C[C@H]1[C@@H]2CC3=C(C)[C@H](c4ccccc4)C[C@@H]3O[C@@H]2[C@@H]2OC(=O)[C@]3(C)C=CC(=O)[C@@]1(C)[C@@H]23` [S-102]: under setting [1], the IC50 is 0.17 µM.
Same read-out and setting: the figure for `COC(=O)C[C@H]1[C@@H]2CC3=C(C)[C@@H](c4ccc(OS(=O)(=O)c5ccc(C)cc5)cc4)C[C@@H]3O[C@@H]2[C@@H]2OC(=O)[C@]3(C)C=CC(=O)[C@@]1(C)[C@@H]23` [S-140] is 0.119 µM.
As to `COC(=O)C[C@H]1[C@]2(C)C3=C(C)CC[C@H]3O[C@@H]2[C@@H]2OC(=O)[C@]3(C)C=CC(=O)[C@@]1(C)[C@@H]23` [S-97], under setting [1], the IC50 turned out to be 1.45 µM.
In the case of `COC(=O)C[C@H]1[C@@H]2CC3=C(C)[C@@H](c4ccc(O[Si](C)(C)C(C)(C)C)cc4)C[C@@H]3O[C@@H]2[C@@H]2OC(=O)[C@]3(C)C=CC(=O)[C@@]1(C)[C@@H]23` [S-122], under “read-out: IC50 (μM) UWB1 cells”, the 50% inhibitory concentration (IC50) was 0.0534 µM.
The same measure, in the same setting: the figure for `COC(=O)C[C@H]1[C@@H]2CC3=C(C)[C@H](c4ccc(O[Si](C)(C)C(C)(C)C)cc4)C[C@@H]3O[C@@H]2[C@@H]2OC(=O)[C@]3(C)C=CC(=O)[C@@]1(C)[C@@H]23` [S-119] is 0.188 µM.
On to `COC(=O)C[C@H]1[C@]2(C)C3=C(C)[C@H](c4ccoc4-c4ccc5c(c4)OCO5)C[C@H]3O[C@@H]2[C@@H]2OC(=O)[C@]3(C)C=CC(=O)[C@@]1(C)[C@@H]23` [S-44], for which, under setting [1], the IC50 stood at 0.383 µM.
`COC(=O)C[C@H]1[C@@H]2CC3=C(C)[C@H](C4CCCCC4)C[C@@H]3O[C@@H]2[C@@H]2OC(=O)[C@]3(C)C=CC(=O)[C@@]1(C)[C@@H]23` [S-105]: the IC50 under setting [1] came out at 0.2 µM.
For `COC(=O)C[C@H]1[C@]2(C)C3=C(C)[C@@H](c4ccc(CO[Si](C)(C)C(C)(C)C)cc4)C[C@H]3O[C@@H]2[C@@H]2OC(=O)[C@]3(C)C=CC(=O)[C@@]1(C)[C@@H]23` [S-148], the concentration for half-maximal inhibition (IC50) (read-out: IC50 (μM) UWB1 cells) amounted to 0.161 µM.
As to `COC(=O)C[C@H]1[C@]2(C)C3=C(C)[C@H](c4ccccc4O[Si](C)(C)C(C)(C)C)C[C@H]3O[C@@H]2[C@@H]2OC(=O)[C@]3(C)C=CC(=O)[C@@]1(C)[C@@H]23` [S-128], the 50% inhibitory concentration (IC50) (read-out: IC50 (μM) UWB1 cells) came to 0.0908 µM.
For `C=C1[C@H](O[C@H]2C=C(C)[C@H](c3ccoc3)C2)[C@@H]2OC(=O)[C@]3(C)C=CC(=O)[C@@](C)([C@@H]23)[C@H]1CC(=O)OC` [S-26-1], the IC50 under setting [1] was 0.265 µM.
With `COC(=O)C[C@H]1[C@]2(C)C3=C(C)[C@@H](c4cccc(O[Si](C)(C)C(C)(C)C)c4)C[C@H]3O[C@@H]2[C@@H]2OC(=O)[C@]3(C)C=CC(=O)[C@@]1(C)[C@@H]23` [S-114], the IC50 (read-out: IC50 (μM) UWB1 cells) was found to be 0.242 µM.
Take `COC(=O)C[C@H]1[C@@H]2CC3=C(C)[C@H](c4ccc(O[Si](C)(C)C(C)(C)C)cc4)C[C@H]3O[C@@H]2[C@@H]2OC(=O)[C@]3(C)C=CC(=O)[C@@]1(C)[C@@H]23` [S-118]: the IC50 (read-out: IC50 (μM) UWB1 cells) amounted to 0.0815 µM.
For `COC(=O)C[C@H]1[C@@H]2CC3=C(C)[C@@H](c4ccoc4)C[C@@H]3O[C@@H]2[C@@H]2OC(=O)[C@]3(C)C=CC(=O)[C@@]1(C)[C@@H]23` [S-99], under setting [1], the IC50 stood at 0.88 µM.
Same read-out and setting: the figure for `CC1=C2C[C@@H]3[C@H](O[C@@H]2C[C@H]1c1ccoc1)[C@@H]1OC(=O)[C@]2(C)C=CC(=O)[C@@](C)([C@@H]12)[C@H]3CC(=O)OC(C)(C)C` [S-155] is 0.306 µM; for `COC(=O)C[C@H]1[C@]2(C)C3=C(C)[C@H](c4ccoc4-c4ccccc4OC)C[C@H]3O[C@@H]2[C@H](O)[C@H]2C(C)=CCC(=O)[C@]12C` [S-56] it is greater than 10 µM.
In the case of `C=C1[C@H](O)[C@H](O)[C@@H]2[C@](C)(C(=O)C=C[C@@]2(C)C(=O)OC)[C@H]1CC(=O)OC` [S-16-b], the IC50 under setting [1] was greater than 10 µM.
The same measure, in the same setting: the same measure for `COC(=O)C[C@H]1[C@@H]2CC3=C(C)[C@@H](c4ccccc4)C[C@@H]3O[C@@H]2[C@@H]2OC(=O)[C@]3(C)C=CC(=O)[C@@]1(C)[C@@H]23` [S-103]: 0.16 µM.
Consider `COC(=O)C[C@H]1[C@@H]2CC3=C(C)CC[C@@H]3O[C@@H]2[C@@H]2OC(=O)[C@]3(C)C=CC(=O)[C@@]1(C)[C@@H]23` [S-98], for which the IC50 (read-out: IC50 (μM) UWB1 cells) was determined as 0.83 µM.
Same read-out and setting: the same measure for `COC(=O)C[C@H]1[C@@H]2CC3=C(C)[C@@H](c4ccc(CO[Si](C)(C)C(C)(C)C)cc4)C[C@@H]3O[C@@H]2[C@@H]2OC(=O)[C@]3(C)C=CC(=O)[C@@]1(C)[C@@H]23` [S-149]: 0.163 µM.
For the compound `COC(=O)C[C@@H]1[C@@]2(C)C(=O)C=C[C@@]3(C)C(=O)O[C@@H]([C@H]4O[C@H]5CC(c6ccoc6)=C(C)[C@]56C[C@@]416)[C@H]23` [S-65], the IC50 under setting [1] is greater than 10 µM.
Still for that read-out and setting: the figure for `CCC(C)NC(=O)c1ccc(-c2occc2[C@@H]2C[C@H]3O[C@@H]4[C@@H]5OC(=O)[C@]6(C)C=CC(=O)[C@](C)([C@@H](CC(=O)OC)[C@]4(C)C3=C2C)[C@@H]56)cc1` (stereo partly drawn) [S-53] is 0.17 µM.
For `COC(=O)C[C@H]1[C@]2(C)C3=C(C)[C@H](c4ccoc4-c4ccc(C(=O)O)cc4)C[C@H]3O[C@@H]2[C@@H]2OC(=O)[C@]3(C)C=CC(=O)[C@@]1(C)[C@@H]23` [S-58], the IC50 under setting [1] is 1.79 µM.
Consider `COC(=O)C[C@H]1[C@@H]2CC3=C(C)[C@@H](c4ccc(O[Si](C)(C)C(C)(C)C)cc4)C[C@H]3O[C@@H]2[C@@H]2OC(=O)[C@]3(C)C=CC(=O)[C@@]1(C)[C@@H]23` [S-121], for which the concentration for half-maximal inhibition (IC50) (read-out: IC50 (μM) UWB1 cells) is 0.19 µM.
`COC(=O)C[C@H]1[C@]2(C)C3=C(C)[C@H](c4ccc(OC)cc4)C[C@H]3O[C@@H]2[C@@H]2OC(=O)[C@]3(C)C=CC(=O)[C@@]1(C)[C@@H]23` [S-107]: the IC50 under setting [1] amounted to 0.27 µM.
On to `COC(=O)C[C@H]1[C@]2(C)C3=C(C)[C@@H](c4ccc(O[Si](C)(C)C(C)(C)C)cc4)C[C@H]3O[C@@H]2[C@@H]2OC(=O)[C@]3(C)C=CC(=O)[C@@]1(C)[C@@H]23` (stereo in doubt) [S-120], for which the IC50 (read-out: IC50 (μM) UWB1 cells) is 0.165 µM.
For `COC(=O)C[C@H]1[C@]2(C)C3=C(C)[C@H](c4cccc(O[Si](C)(C)C(C)(C)C)c4)C[C@H]3O[C@@H]2[C@@H]2OC(=O)[C@]3(C)C=CC(=O)[C@@]1(C)[C@@H]23` [S-112], the IC50 (read-out: IC50 (μM) UWB1 cells) was found to be 0.219 µM.
Turning to `COC(=O)C[C@H]1[C@]2(C)C3=C(C)[C@@H](c4ccc(-c5cc(C(C)(C)C)cc(C(C)(C)C)c5)cc4)C[C@H]3O[C@@H]2[C@@H]2OC(=O)[C@]3(C)C=CC(=O)[C@@]1(C)[C@@H]23` [S-135], under setting [1], the IC50 stood at 0.185 µM.
Still for that read-out and setting: the figure for `COC(=O)C[C@H]1[C@@H]2CC3=C(C)[C@@H](c4ccc(C(=O)NC(C)(C)C)cc4)C[C@@H]3O[C@@H]2[C@@H]2OC(=O)[C@]3(C)C=CC(=O)[C@@]1(C)[C@@H]23` [S-153] is 0.245 µM; for `COC(=O)C[C@H]1[C@]2(C)C3=C(C)[C@H](c4ccc(OC(=O)C(C)(C)C)cc4)C[C@H]3O[C@@H]2[C@@H]2OC(=O)[C@]3(C)C=CC(=O)[C@@]1(C)[C@@H]23` [S-124] it is 0.564 µM.
Same read-out and setting: the figure for `COC(=O)C[C@H]1[C@@H]2CC3=C(C)[C@H](c4ccc(-c5cc(C(C)(C)C)cc(C(C)(C)C)c5)cc4)C[C@H]3O[C@@H]2[C@@H]2OC(=O)[C@]3(C)C=CC(=O)[C@@]1(C)[C@@H]23` [S-133] is 0.186 µM; for `COC(=O)C[C@H]1[C@]2(C)C3=C(C)[C@H](c4ccoc4)C[C@H]3O[C@@H]2[C@H](OC(C)=O)[C@@H]2[C@]1(C)C(=O)C=C[C@@]2(C)C(=O)OC` [S-64, nimbin] it is greater than 10 µM; for `COC(=O)C[C@H]1[C@]2(C)C3=C(C)[C@@H](c4ccc(C(C)(C)C)cc4)C[C@H]3O[C@@H]2[C@@H]2OC(=O)[C@]3(C)C=CC(=O)[C@@]1(C)[C@@H]23` [S-145] it is 0.157 µM.
Take `COC(=O)C[C@H]1[C@@H]2CC3=C(C)[C@@H](C4CCCCC4)C[C@@H]3O[C@@H]2[C@@H]2OC(=O)[C@]3(C)C=CC(=O)[C@@]1(C)[C@@H]23` [S-106]: the IC50 under setting [1] came to 0.16 µM.
Still for that read-out and setting: the same measure for `C=C1[C@H](O)[C@@H]2OC(=O)[C@]3(C)C=CC(=O)[C@@](C)([C@@H]23)[C@H]1CC(=O)OC(C)(C)C` [S-156]: 3.65 µM.
`COC(=O)C[C@H]1[C@@H]2CC3=C(C)[C@@H](c4cccc(O[Si](C)(C)C(C)(C)C)c4)C[C@@H]3O[C@@H]2[C@@H]2OC(=O)[C@]3(C)C=CC(=O)[C@@]1(C)[C@@H]23` [S-116]: the 50% inhibitory concentration (IC50) (read-out: IC50 (μM) UWB1 cells) turned out to be 0.15 µM.
The same measure, in the same setting: the figure for `COC(=O)C[C@H]1[C@]2(C)C3=C(C)[C@H](c4ccc(CO[Si](C)(C)C(C)(C)C)cc4)C[C@H]3O[C@@H]2[C@@H]2OC(=O)[C@]3(C)C=CC(=O)[C@@]1(C)[C@@H]23` [S-146] is 0.18 µM.
For `COC(=O)C[C@H]1[C@@H]2CC3=C(C)[C@@H](c4ccc(C(=O)O)cc4)C[C@@H]3O[C@@H]2[C@@H]2OC(=O)[C@]3(C)C=CC(=O)[C@@]1(C)[C@@H]23` [S-152], the IC50 under setting [1] was 2.88 µM.
On the same count and under the same terms, the same measure for `C=C1[C@H](O[C@H]2CCC(C(C)C)=C2I)[C@@H]2OC(=O)[C@]3(C)C=CC(=O)[C@@](C)([C@@H]23)[C@H]1CC(=O)OC` [S-111]: 0.255 µM.
`COC(=O)C[C@H]1[C@]2(C)C3=C(C)[C@H](C4=CCOC4=O)C[C@H]3O[C@@H]2[C@@H]2OC(=O)[C@]3(C)C=CC(=O)[C@@]1(C)[C@@H]23` [S-131]: under setting [1], the IC50 is 1.18 µM.

One may read the IC50 as the midpoint of a concentration-inhibition curve.

These data come from US20240336622A1 (The Board of Regents of The University of Texas System, priority 2021, published 2024).
